Earlier results in patent US20190281871A1, “CHICORY PRODUCTS CONTAINING CANNABINOIDS” (Full Spectrum Laboratories Ltd, priority 2016, published 2019).

Assays:
5-HT1A receptor = target: T1, 5-HT1A receptor (Homo sapiens, UniProt P08908)
T1 sequence (P08908 1-422): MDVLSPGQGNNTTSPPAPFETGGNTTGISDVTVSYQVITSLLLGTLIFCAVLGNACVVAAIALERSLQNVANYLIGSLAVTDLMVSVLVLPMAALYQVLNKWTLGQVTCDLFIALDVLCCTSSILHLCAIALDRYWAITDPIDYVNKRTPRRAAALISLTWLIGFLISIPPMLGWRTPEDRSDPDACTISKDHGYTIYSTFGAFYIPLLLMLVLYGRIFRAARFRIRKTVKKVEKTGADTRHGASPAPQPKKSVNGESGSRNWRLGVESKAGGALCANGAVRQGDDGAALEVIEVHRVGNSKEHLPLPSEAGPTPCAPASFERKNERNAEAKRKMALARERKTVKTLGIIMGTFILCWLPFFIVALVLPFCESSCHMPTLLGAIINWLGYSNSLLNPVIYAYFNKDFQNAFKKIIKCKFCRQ

CB1 receptor = CB1 receptor (Homo sapiens, UniProt P21554)
CB1 receptor, sequence (P21554 whole entry): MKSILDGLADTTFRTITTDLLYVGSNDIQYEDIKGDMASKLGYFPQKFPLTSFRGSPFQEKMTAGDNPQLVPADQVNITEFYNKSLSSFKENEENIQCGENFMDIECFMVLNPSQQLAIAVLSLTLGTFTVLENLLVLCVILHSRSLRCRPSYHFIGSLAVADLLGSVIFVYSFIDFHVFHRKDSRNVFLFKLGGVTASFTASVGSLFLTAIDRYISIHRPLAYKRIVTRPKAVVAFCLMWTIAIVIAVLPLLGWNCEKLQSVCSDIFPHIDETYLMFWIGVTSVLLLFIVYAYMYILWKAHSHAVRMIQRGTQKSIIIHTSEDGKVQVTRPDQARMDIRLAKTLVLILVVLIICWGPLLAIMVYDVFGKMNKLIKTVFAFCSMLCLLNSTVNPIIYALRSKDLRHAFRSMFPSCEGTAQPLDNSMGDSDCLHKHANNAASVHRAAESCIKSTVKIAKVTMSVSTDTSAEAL

CCCCCc1cc(O)c(C/C=C(\C)CCC=C(C)C)c(O)c1 [CBG, cannabigerol]
α2-adrenergic receptor agonist affinity (α2-adrenergic receptor): high affinity | 5-HT1A receptor antagonist affinity (5-HT1A receptor): moderate affinity | CB1 receptor antagonist affinity (CB1 receptor): low affinity
